In ChEMBL document CHEMBL1151648, “The Sesquiterpenes of Lactarius vellereus and Their Role in a Proposed Chemical Defense System” (J Nat Prod, 1985):

Key:
Assay type in all cases: functional
Candida albicans = assay: Antimicrobial activity against Candida albicans by Kirby-Bauer growth inhibition assay
Escherichia coli = assay: Antimicrobial activity against Escherichia coli by Kirby-Bauer growth inhibition assay
Micrococcus luteus = assay: Antimicrobial activity against Micrococcus luteus by Kirby-Bauer growth inhibition assay

Compound | Activity (Candida albicans) [µg] | Activity (Escherichia coli) [µg] | Activity (Micrococcus luteus) [µg]
CC1(C)C[C@H]2C=C(C=O)[C@]3(C=O)C[C@]3(C)[C@H]2C1 [ISOVELLERAL] | 2 | 15 | 2
CC1(C)C[C@H]2C=C3COC(O)[C@]34C[C@]4(C)[C@H]2C1 (stereo not given in full) [ISOVELLEROL] | 50 | >1000 | 300
C[C@H]1C=C(C=O)C(C=O)=C[C@@H]2CC(C)(C)C[C@@H]21 [LACTARANE] | 2 | 50 | 15
C[C@H]1C=C(CO)C(CO)=C[C@@H]2CC(C)(C)C[C@@H]21 [VELLERDIOL] | >1000 | >1000 | >1000
C[C@H]1C=C(C=O)C(CO)=C[C@@H]2CC(C)(C)C[C@@H]21 [VELLEROL] | 100 | >1000 | 300
